In the data set the test system is GENE-TOX genotoxicity assays, various organisms and cells. Briefly: GENE-TOX mutagenicity studies. The following applies: for call: Assay Type: In vivo carcinogenicity studies. The text has this:
GENE-TOX provides genetic toxicology (mutagenicity) test data from expert peer review of open scientific literature for more than 3,000 chemicals from the United States Environmental Protection Agency (EPA). GENE-TOX was established to select assay systems for evaluation, review data in the scientific literature, and recommend proper testing protocols and evaluation procedures for these systems.
GENE-TOX covers the years 1991 - 1998. It is no longer updated.
This is an archive assay for GENE-TOX mutagenicity studies.

Setting [1] is: Species/Cell Type: Nonhuman, Assay Code: CCGT, Evaluation Type: Evaluation A (Pre-1980).
Where [2] appears, read: Species/Cell Type: Salmonella typhimurium (one or more of the five standard strains: TA98, TA100, TA1535, TA1537, and TA1538), Assay Type: Histidine reverse gene mutation, Ames assay, Assay Code: SAL+, Evaluation Type: Evaluation A (Pre-1980).
[3] abbreviates: Species/Cell Type: Mammalian polychromatic erythrocytes, Assay Type: Micronucleus test, chromosome aberrations, Assay Code: MNT+, Evaluation Type: Evaluation B (Post-1980).
Where [4] appears, read: Species/Cell Type: Saccharomyces cerevisiae, Assay Type: Mitotic recombination or gene conversion, Assay Code: YEH-, Evaluation Type: Evaluation A (Pre-1980).
Where [5] appears, read: Species/Cell Type: Human lymphocytes, Assay Type: Sister-chromatid exchange (SCE) in vitro, Assay Code: SCL+, Evaluation Type: Evaluation B (Post-1980).
The mark [6] stands for this setting: Species/Cell Type: Drosophila melanogaster, Assay Type: Sex-linked recessive lethal gene mutation, Assay Code: SRL+, Evaluation Type: Evaluation A (Pre-1980).
Setting [7] is: Species/Cell Type: Saccharomyces cerevisiae, Assay Type: Mitotic recombination or gene conversion, Assay Code: YEC+, Evaluation Type: Evaluation A (Pre-1980).
[8] abbreviates: Species/Cell Type: Chinese hamster lung (V79) cells, Assay Type: Forward gene mutation at the HPRT or ouabain locus, Assay Code: V79+, Evaluation Type: Evaluation A (Pre-1980).
The mark [9] stands for this setting: Species/Cell Type: Nonhuman, Assay Type: Sister-chromatid exchange (SCE) in vitro, Assay Code: SC2+D, Dose Response: With dose response, Evaluation Type: Evaluation A (Pre-1980).

The structures appear in SMILES notation. The source made the active and inactive calls. The rule behind the calls is not given here.

Turning to `CC(=O)[O-].CC(=O)[O-].[Hg+2]`, the mutagenic call is, setting by setting: (Species/Cell Type: Mammalian oocytes or early embryo, Assay Type: Chromosome aberrations in vivo, Assay Code: CYO-, Evaluation Type: Evaluation A (Pre-1980)) “inactive; negative”; (Species/Cell Type: Nonhuman, Assay Type: Sister-chromatid exchange (SCE) in vitro, Assay Code: SC2-, Evaluation Type: Evaluation B (Post-1980)) “inactive; negative”.
Regarding `Oc1cc2c3ccccc3cc3ccc4cccc1c4c32`, the mutagenic call is “inactive; negative” (Species/Cell Type: Chinese hamster lung (V79) cells, Assay Type: Forward gene mutation at the HPRT or ouabain locus, Assay Code: V79-, Evaluation Type: Evaluation A (Pre-1980)) and “active; positive” under setting [2]. Further, the call under setting [1] is listed as “no conclusion”.
As to `O[C@H]1[C@H]2c3cc4c(cc3CN3CCC(=C[C@@H]1O)[C@H]23)OCO4`, under setting [3], the mutagenic call was “active; positive”.
Regarding `Nc1ccc(O)c(N)c1`, the mutagenic call (Species/Cell Type: Allium cepa, Assay Type: Chromosome aberrations, Assay Code: ALC-, Evaluation Type: Evaluation A (Pre-1980)) is “inactive; negative”.
Take `C=CBr`: the mutagenic call (Species/Cell Type: Tradescantia species, Assay Type: Gene mutation, Assay Code: TRM+D, Dose Response: With dose response, Evaluation Type: Evaluation A (Pre-1980)) was “active; positive”.
In the case of `Cc1c2c(c(CO)c3c1ccc1ccccc13)C=C[C@H](O)[C@H]2O`, the mutagenic call (Species/Cell Type: Chinese hamster lung (V79) cells, Assay Type: Forward gene mutation at the HPRT or ouabain locus, Assay Code: V79-*, Activation: With metabolic activation, Evaluation Type: Evaluation A (Pre-1980)) was “inactive; negative”.
With `NC[C@H]1O[C@H](O[C@H]2[C@H](O)[C@@H](O[C@H]3O[C@H](CO)[C@@H](O)[C@H](N)[C@H]3O)[C@H](N)C[C@@H]2N)[C@H](N)[C@@H](O)[C@@H]1O`, under setting [4], the mutagenic call was “inactive; negative”.
In the case of `Cc1ccc(C2CO2)cc1` (stereo not drawn), the mutagenic call by setting is: (Species/Cell Type: Escherichia coli WP2 UVRA, Assay Type: Tryptophan reverse gene mutation, Assay Code: WPU+D, Dose Response: With dose response, Evaluation Type: Evaluation A (Pre-1980)) “active; positive”; under setting [5], “active; positive”; (Species/Cell Type: Human, Assay Type: Sister-chromatid exchange (SCE) in vitro, Assay Code: SC1+, Evaluation Type: Evaluation B (Post-1980)) “active; positive”; under setting [2], “active; positive”.
As to `CC(=O)Nc1nc(NC(C)=O)nc(-c2ccc([N+](=O)[O-])o2)n1`, the mutagenic call under setting [2] was “active; positive”.
Turning to `O=C(O)CC(O)(CC(=O)O)C(=O)O`, the mutagenic call under setting [3] was “active; positive”.
As to `NCC[C@H](O)C(=O)N[C@@H]1C[C@H](N)[C@@H](O[C@H]2O[C@H](CN)[C@@H](O)[C@H](O)[C@H]2O)[C@H](O)[C@H]1O[C@H]1O[C@H](CO)[C@@H](O)[C@H](N)[C@H]1O`, the mutagenic call under setting [4] was “inactive; negative”.
With `CN(C)N=Nc1c(Cl)cc(Cl)cc1Cl`, the mutagenic call was “no conclusion” (Species/Cell Type: Drosophila melanogaster, Assay Type: Aneuploidy, partial sex chromosome loss, chromosome aberrations, Assay Code: DAPT, Evaluation Type: Evaluation A (Pre-1980)); “no conclusion” (Species/Cell Type: Drosophila melanogaster, Assay Type: Aneuploidy, whole sex chromosome loss, chromosome aberrations, Assay Code: DACT, Evaluation Type: Evaluation A (Pre-1980)); “active; positive” under setting [6]; “active; positive” (Species/Cell Type: Mammalian polychromatic erythrocytes, Assay Type: Micronucleus test, chromosome aberrations, Assay Code: MNT+, Evaluation Type: Evaluation A (Pre-1980)); “active; positive” (Species/Cell Type: Neurospora crassa, Assay Type: Forward gene mutation, Assay Code: NEF+, Evaluation Type: Evaluation A (Pre-1980)); “active; positive” under setting [7].
Turning to `Cc1c2c(cc3c1ccc1ccccc13)C=C[C@@H](O)[C@@H]2O`, the mutagenic call is “active; positive” under setting [8]; “active; positive” (Species/Cell Type: Mouse prostate cells, Assay Type: Cell transformation, Assay Code: CTM+, Evaluation Type: Evaluation A (Pre-1980)); “active; positive” under setting [9]. The call under setting [1] is “no conclusion”.
Regarding `CC(=O)ON(C(C)=O)c1ccc2c(c1)Cc1ccccc1-2`, the mutagenic call under setting [8] was “active; positive”; the mutagenic call under setting [6] is “active; positive”; the mutagenic call (Species/Cell Type: Escherichia coli polA (W3119 vs P3478), Assay Type: Rec-assay, DNA effects (bacterial DNA repair), Assay Code: RE1+, Evaluation Type: Evaluation A (Pre-1980)) was “active; positive”; the mutagenic call (Species/Cell Type: Fischer rat embryo (RLV/1706) cells, Assay Type: Cell transformation, viral enhanced, Assay Code: CTR+, Evaluation Type: Evaluation A (Pre-1980)) is “active; positive”; the mutagenic call (Species/Cell Type: Human diploid fibroblasts, Assay Type: Unscheduled DNA synthesis (UDS) in vitro, DNA effects, Assay Code: UDH+D, Dose Response: With dose response, Evaluation Type: Evaluation A (Pre-1980)) is “active; positive”; the mutagenic call under setting [5] was “active; positive”. The mutagenic call is “active; positive” (Species/Cell Type: Human, Assay Type: Sister-chromatid exchange (SCE) in vitro, Assay Code: SC1+, Evaluation Type: Evaluation A (Pre-1980)); “active; positive” (Species/Cell Type: Mouse (BALB/c-3T3) cells, Assay Type: Cell transformation, Assay Code: CTB+, Evaluation Type: Evaluation A (Pre-1980)); “active; positive” (Species/Cell Type: Mouse (C3H/10T1/2) cells, Assay Type: Cell transformation, Assay Code: CTH+D, Dose Response: With dose response, Evaluation Type: Evaluation A (Pre-1980)); “active; positive” (Species/Cell Type: Mouse embryo (AKR/ME) cells, Assay Type: Cell transformation, Assay Code: CTK+, Evaluation Type: Evaluation A (Pre-1980)); “active; positive” (Species/Cell Type: Neurospora crassa, Assay Type: Reverse gene mutation, Assay Code: NER+, Evaluation Type: Evaluation A (Pre-1980)); “active; positive” under setting [9]. For the same compound, the mutagenic call reads like this: (Species/Cell Type: Nonhuman, Assay Type: Sister-chromatid exchange (SCE) in vivo, Assay Code: SC3+, Evaluation Type: Evaluation B (Post-1980)) “active; positive”; (Species/Cell Type: Nonhuman, Assay Type: Sister-chromatid exchange (SCE) in vivo, Assay Code: SC3T, Evaluation Type: Evaluation A (Pre-1980)) “no conclusion”; (Species/Cell Type: Rat primary hepatocytes, Assay Type: Unscheduled DNA synthesis (UDS) in vitro, DNA effects, Assay Code: UDP+, Evaluation Type: Evaluation A (Pre-1980)) “active; positive”; under setting [7], “active; positive”; (Species/Cell Type: Saccharomyces cerevisiae, Assay Type: Mitotic recombination or gene conversion, Assay Code: YEH+, Evaluation Type: Evaluation A (Pre-1980)) “active; positive”; under setting [2], “active; positive”. In addition, the mutagenic call runs as follows: (Species/Cell Type: Salmonella typhimurium, Assay Type: Forward and reverse gene mutation, host-mediated assay, Assay Code: HMA+, Evaluation Type: Evaluation A (Pre-1980)) “active; positive”; (Species/Cell Type: Syrian hamster embryo (SA7/SHE) cells, Assay Type: Cell transformation, viral enhanced, Assay Code: CT7+, Evaluation Type: Evaluation A (Pre-1980)) “active; positive”; (Species/Cell Type: Syrian hamster embryo (SHE) cells, Assay Type: Cell transformation, clonal assay, Assay Code: CTC+D, Dose Response: With dose response, Evaluation Type: Evaluation A (Pre-1980)) “active; positive”; (Species/Cell Type: Syrian hamster embryo (SHE) cells, Assay Type: Cell transformation, focus assay, Assay Code: CTF+, Evaluation Type: Evaluation A (Pre-1980)) “active; positive”. In addition, under “Species/Cell Type: Nonhuman, Assay Code: CCG+L, Evaluation Type: Evaluation A (Pre-1980)”, the call was “active; positive”.
In the case of `O=NN(CCCl)C(=O)NCCO`, the mutagenic call reads like this: under setting [6], “active; positive”; under setting [7], “active; positive”.
Turning to `Cc1ccc2c(c1N)C(=O)c1ccccc1C2=O`, under “Species/Cell Type: Nonhuman, Assay Code: CCG+, Evaluation Type: Evaluation A (Pre-1980)”, the call is “active; positive”.

Source of the values: PubChem BioAssay AID1259408 (Genetic Toxicology Data Bank (GENE-TOX), 2018).
